Assays:
Format in all cases: physicochemical
[1] = Evaluation of humidity at elevated temperature (solid state, open vial, 75% RH, 1 week; HPLC, XRPD, color); details: for Bulk (XRPD): 50° C. and 80° C.
Experimental: (§1) (5-(5-((1R,2S)-2-fluorocyclopropyl)-1,2,4-oxadiazol-3-yl)-2-methylphenyl)imidazo[1,2-a]pyridine-3-carboxamide Form A (10 mg) was placed in an open vial in a 75% relative humidity (RH) chamber at 50° C. for one week and also in an open vial in a 75% relative humidity (RH) chamber at 80° C. for one week. The initial purity of (5-(5-((1R,2S)-2-fluorocyclopropyl)-1,2,4-oxadiazol-3-yl)-2-methylphenyl)imidazo[1,2-a]pyridine-3-carboxamide Form A was 99.7%.
The samples were examined by XRPD for physical stability determination and by HPLC for chemical stability determination indicated by the presence of degradation products (DP).
The HPLC method used is […]
The color (CL) of the samples was evaluated by visual observation.
as §1, with “fumaric acid co-crystal” for “Form A”
The samples were examined by XRPD for physical stability determination and by HPLC for chemical stability determination indicated by the presence of degradation products (DP). The HPLC method used is […]

[2] = Evaluation of the effect of grinding and granulation; details: Grinding and granulation with added water or ethanol
Experimental: 5-(5-((1R,2S)-2-fluorocyclopropyl)-1,2,4-oxadiazol-3-yl)-2-methylphenyl)imidazo[1,2-a]pyridine-3-carboxamide Form A (10 mg) was placed in a container and ground with added water or ethanol.
5-(5-((1R,2S)-2-fluorocyclopropyl)-1,2,4-oxadiazol-3-yl)-2-methylphenyl)imidazo[1,2-a]pyridine-3-carboxamide fumaric acid co-crystal (10 mg) was placed in a container and ground with added water or ethanol.

[3] = Water activity evaluation - crystal modification (water/ethanol, 2 weeks, XRPD)
Experimental: 5-(5-((1R,2S)-2-fluorocyclopropyl)-1,2,4-oxadiazol-3-yl)-2-methylphenyl)imidazo[1,2-a]pyrindine-3-carboxamide Form A (10 mg) was placed in a vials containing various ratios of water and ethanol and allowed to equilibrate for 2 weeks. The samples were then examined by XRPD for physical stability determination. The results are given below in Table 5 which show conversion to Form HA and Form HB occurs depending on the water activity. […]

[4] = Evaluation of Xenon light exposure (HPLC, XRPD, color); details: Xenon light (approx. 1200 kLuxh, 25° C.)
Experimental: (§2) 5-(5-((1R,2S)-2-fluorocyclopropyl)-1,2,4-oxadiazol-3-yl)-2-methylphenyl)imidazo[1,2-a]pyridine-3-carboxamide Form A (10 mg) was placed in a container and exposed to approximately 1200 kLuxh of Xenon light at 25° C. The sample was examined by XRPD for physical stability determination and by HPLC for chemical stability determination indicated by the presence of degradation products (DP). The HPLC method used is described in Example 13-1. The color (CL) of the samples was evaluated by visual observation.
as §2, with “Fumaric acid co-crystal” for “Form A”, “19-1.” for “13-1.”

[5] = Water activity 0.000, Water/ethanol (v/v) 0.000/1.000, 2 weeks
[6] = Water activity 0.099, Water/ethanol (v/v) 0.013/0.987, 2 weeks

| CL (color) ([1]; 50° C.) | DP (%) degradation products, Bulk (HPLC) ([1]; 50° C.) [%] | Bulk (XRPD) [1] | CL (color) ([1]; 80° C.) | DP (%) degradation products, Bulk (HPLC) ([1]; 80° C.) [%] | Change in solid state [2] | Modification (XRPD) [3, 5] | Modification (XRPD) [3, 6] | Bulk (XRPD) [4] | CL (color) [4] | DP (%) degradation products, Bulk (HPLC) [4] [%] | Modification (XRPD) ([3]; Water activity 0.205, Water/ethanol (v/v) 0.030/0.970, 2 weeks) | Modification (XRPD) ([3]; Water activity 0.298, Water/ethanol (v/v) 0.048/0.952, 2 weeks) | Modification (XRPD) ([3]; Water activity 0.398, Water/ethanol (v/v) 0.073/0.927, 2 weeks) | Modification (XRPD) ([3]; Water activity 0.502, Water/ethanol (v/v) 0.104/0.896, 2 weeks) | Modification (XRPD) ([3]; Water activity 0.605, Water/ethanol (v/v) 0.145/0.855, 2 weeks) | Modification (XRPD) ([3]; Water activity 0.700, Water/ethanol (v/v) 0.198/0.802, 2 weeks) | Modification (XRPD) ([3]; Water activity 0.802, Water/ethanol (v/v) 0.296/0.704, 2 weeks) | Modification (XRPD) ([3]; Water activity 0.900, Water/ethanol (v/v) 0.550/0.450, 2 weeks) | Modification (XRPD) ([3]; Water activity 1.000, Water/ethanol (v/v) 1.000/0.000, 2 weeks) | Compound |
| --- | --- | --- | --- | --- | --- | --- | --- | --- | --- | --- | --- | --- | --- | --- | --- | --- | --- | --- | --- | --- |
| No change | 0.06 | Bulk (XRPD): No change | No change | 0.06 | no change in solid state | No change | No change | Bulk (XRPD): No change | No change | 0.06 |  |  |  |  |  |  |  |  |  | Cc1ccc(-c2noc([C@H]3C[C@@H]3F)n2)cc1NC(=O)c1cnc2ccccn12 [Form A, N-(5-(5-((1R,2S)-2-fluorocyclopropyl)-1,2,4-oxadiazol-3-yl)-2-methylphenyl)imidazo[1,2-a]pyridine-3-carboxamide] |
| No change | 0.11 | Bulk (XRPD): No change | No change | 0.09 | no change in solid state | No change | No change | Bulk (XRPD): No change | No change | 0.10 | No change | No change | No change | No change | No change | No change | No change | No change | No change | Cc1ccc(-c2noc([C@H]3C[C@@H]3F)n2)cc1NC(=O)c1cnc2ccccn12 [fumaric acid co-crystal, N-(5-(5-((1R,2S)-2-fluorocyclopropyl)-1,2,4-oxadiazol-3-yl)-2-methylphenyl)imidazo[1,2-a]pyridine-3-carboxamide fumaric acid co-crystal] |

From patent US20220194936A1, “CRYSTALLINE FORMS OF N-(5-(5-((1R,2S)-2-FLUOROCYCLOPROPYL)-1,2,4-OXADIAZOL-3-YL)-2-METHYLPHENYL)IMIDAZO[1,2-A]PYRIDINE-3-CARBOXAMIDE” (Novartis AG, priority 2019, published 2022)
